Source: US8901118B2, “Compounds and methods for kinase modulation, and indications therefor” (Plexxikon Inc., priority 2010, dated 2014)
pIC50: −log10 of the molar value.

Experiments:
[1] = biological target: c-Kit kinase (Homo sapiens, UniProt P10721); assay: c-Kit kinase biochemical activity assay (AlphaScreen, biotin-(E4Y)10 phosphorylation); conditions: 100 μM ATP; read-out: Biochemical Inhibition IC50 Kit
How it was run: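 Phosphorylation of 30 nM biotin-(E4Y)10 by c-Kit (0.75 ng per reaction) with 100 µM ATP in HEPES pH 7.5 buffer with Mg2+/Mn2+, 5% DMSO, 1 h at room temperature; 8-point 1:2 compound dilutions. AlphaScreen detection with streptavidin donor and PY20 acceptor beads after EDTA stop. IC50 from signal versus concentration.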

[2] = biological target: T1, BCR-FMS BaF3 cells (Homo sapiens, UniProt P07333); assay: BaF3 BCR-FMS cell proliferation assay (ATPlite); type: cell-based; conditions: read-out: Inhibition of Cell Proliferation IC50, BCR/BaF3 Fms
T1 construct: fused on or other part: P11274 (Breakpoint cluster region protein)
T1 sequence (P07333 582-910): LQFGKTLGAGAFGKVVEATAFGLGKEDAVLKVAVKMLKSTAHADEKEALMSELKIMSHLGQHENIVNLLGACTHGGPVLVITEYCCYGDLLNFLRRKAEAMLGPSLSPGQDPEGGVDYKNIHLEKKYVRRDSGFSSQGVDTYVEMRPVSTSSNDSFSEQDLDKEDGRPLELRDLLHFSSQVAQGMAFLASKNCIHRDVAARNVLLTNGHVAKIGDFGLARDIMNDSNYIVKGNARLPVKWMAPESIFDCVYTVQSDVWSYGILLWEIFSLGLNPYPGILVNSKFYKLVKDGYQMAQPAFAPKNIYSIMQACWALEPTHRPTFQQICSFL
How it was run: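 BaF3 lines were seeded at 10,000 cells/well in growth medium with 1 mg/mL G418 but no IL-3, and MV-4-11 cells at 25,000 cells/well; plates were left overnight at 37 °C. Compounds were added as an 8-point 1:3 series with a top concentration of 10 μM and incubated 3 days. IC50 was taken from ATPlite luminescence.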

c-Kit kinase, sequence (P10721 26-976): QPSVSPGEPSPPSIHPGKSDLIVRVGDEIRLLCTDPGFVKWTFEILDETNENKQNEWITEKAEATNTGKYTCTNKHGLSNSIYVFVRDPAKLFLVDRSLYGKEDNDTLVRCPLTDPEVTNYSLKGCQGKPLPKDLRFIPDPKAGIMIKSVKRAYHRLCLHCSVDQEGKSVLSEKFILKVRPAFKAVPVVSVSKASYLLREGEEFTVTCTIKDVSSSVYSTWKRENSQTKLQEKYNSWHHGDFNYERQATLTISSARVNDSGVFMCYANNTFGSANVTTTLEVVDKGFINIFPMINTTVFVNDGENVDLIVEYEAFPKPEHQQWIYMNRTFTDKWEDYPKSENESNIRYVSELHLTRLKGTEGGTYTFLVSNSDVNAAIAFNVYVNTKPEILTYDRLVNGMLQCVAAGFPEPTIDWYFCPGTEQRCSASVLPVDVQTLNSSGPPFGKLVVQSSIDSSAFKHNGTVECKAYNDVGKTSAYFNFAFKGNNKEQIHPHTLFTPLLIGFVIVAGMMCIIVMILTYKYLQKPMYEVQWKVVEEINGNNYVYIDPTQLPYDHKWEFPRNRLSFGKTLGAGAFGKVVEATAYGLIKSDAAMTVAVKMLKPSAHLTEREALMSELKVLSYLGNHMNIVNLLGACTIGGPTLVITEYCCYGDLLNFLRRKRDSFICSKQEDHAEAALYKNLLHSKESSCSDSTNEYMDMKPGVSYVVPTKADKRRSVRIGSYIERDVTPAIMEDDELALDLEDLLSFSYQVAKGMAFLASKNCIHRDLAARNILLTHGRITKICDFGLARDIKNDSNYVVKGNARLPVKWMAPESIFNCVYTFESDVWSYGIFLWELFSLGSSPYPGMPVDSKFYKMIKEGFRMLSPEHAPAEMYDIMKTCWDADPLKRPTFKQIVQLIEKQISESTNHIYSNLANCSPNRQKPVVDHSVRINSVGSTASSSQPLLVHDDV

Row | SMILES | pIC50 [1] | pIC50 [2]
1 | Fc1nc(Nc2ccc(C3CC3)nc2)ccc1Cc1c[nH]c2ncnc(NCC(F)(F)F)c12 [Compound P-4130, 5-[[6-[(6-cyclopropyl-3-pyridyl)amino]-2-fluoro-3-pyridyl]methyl]-N-(2,2,2-trifluoroethyl)-7H-pyrrolo[2,3-d]pyrimidin-4-amine] | > 6.00 | > 8.00
2 | CCc1ccc(Nc2ccc(C(=O)c3c[nH]c4ncc(C)cc34)c(F)n2)cn1 [Compound P-3049, [6-(6-Ethyl-pyridin-3-ylamino)-2-fluoro-pyridin-3-yl]-(5-methyl-1H-pyrrolo[2,3-b]pyridin-3-yl)-methanone] | > 7.00 | > 8.00
3 | Cc1cnc2[nH]cc(Cc3cnc(Nc4cc(C5CC5)n[nH]4)nc3)c2c1 [Compound P-3032, (5-Cyclopropyl-2H-pyrazol-3-yl)-[5-(5-methyl-1H-pyrrolo[2,3-b]pyridin-3-ylmethyl)-pyrimidin-2-yl]-amine] | > 6.00 | > 6.00
4 | CCOc1ncnc2[nH]cc(Cc3ccc(Nc4ccc(Br)nc4)nc3F)c12 [Compound P-4020, (6-Bromo-pyridin-3-yl)-[5-(4-ethoxy-7H-pyrrolo[2,3-d]pyrimidin-5-ylmethyl)-6-fluoro-pyridin-2-yl]-amine] | > 7.00 | > 7.00
5 | Clc1cnc2[nH]cc(Cc3cnc(NC4CCCCC4)nc3)c2c1 [Compound P-3001, [5-(5-chloro-1H-pyrrolo[2,3-b]pyridin-3-ylmethyl)-pyrimidin-2-yl]-cyclohexyl-amine] | > 6.00 | > 7.00
6 | CCOc1ccc(Nc2ccc(C(=O)c3c[nH]c4ncc(C)cc34)c(F)n2)cn1 [Compound P-3045, [6-(6-ethoxy-pyridin-3-ylamino)-2-fluoro-pyridin-3-yl]-(5-methyl-1H-pyrrolo[2,3-b]pyridin-3-yl)-methanone] | > 6.00 | > 7.00
7 | COc1ccc(Nc2ccc(Cc3c[nH]c4ncc(C)cc34)c(F)n2)cn1 [Compound P-3019, [6-fluoro-5-(5-methyl-1H-pyrrolo[2,3-b]pyridin-3-ylmethyl)-pyridin-2-yl]-(6-methoxy-pyridin-3-yl)-amine] | > 6.00 | > 8.00
8 | COc1ccc(Nc2ccc(C(=O)c3c[nH]c4ncnc(C5CC5)c34)c(F)n2)cn1 [Compound P-4022, (4-cyclopropyl-7H-pyrrolo[2,3-d]pyrimidin-5-yl)-[2-fluoro-6-(6-methoxy-pyridin-3-ylamino)-pyridin-3-yl]-methanone] | > 6.00 | > 7.00
9 | CCc1ccc(Nc2ccc(Cc3c[nH]c4ncnc(OC)c34)c(F)n2)cn1 [Compound P-4007, (6-Ethyl-pyridin-3-yl)-[6-fluoro-5-(4-methoxy-7H-pyrrolo[2,3-d]pyrimidin-5-ylmethyl)-pyridin-2-yl]-amine] | > 7.00 | > 8.00
10 | CCOc1ccc(Nc2ccc(Cc3c[nH]c4ncnc(C)c34)c(F)n2)cn1 [Compound P-4006, (6-Ethoxy-pyridin-3-yl)-[6-fluoro-5-(4-methyl-7H-pyrrolo[2,3-d]pyrimidin-5-ylmethyl)-pyridin-2-yl]-amine] | > 7.00 | > 8.00
11 | CCOc1ccc(Nc2ccc(Cc3c[nH]c4ncnc(OC)c34)c(F)n2)cn1 [Compound P-4005, (6-Ethoxy-pyridin-3-yl)-[6-fluoro-5-(4-methoxy-7H-pyrrolo[2,3-d]pyrimidin-5-ylmethyl)-pyridin-2-yl]-amine] | > 7.00 | > 8.00
12 | Cc1cnc2[nH]cc(Cc3cnc(Nc4ccc(C(F)(F)F)nc4)nc3)c2c1 [Compound P-3018, [5-(5-Methyl-1H-pyrrolo[2,3-b]pyridin-3-ylmethyl)-pyrimidin-2-yl]-(6-trifluoromethyl-pyridin-3-yl)-amine] | > 8.00 | > 7.00
13 | CCn1cc(Nc2ccc(Cc3c[nH]c4ncnc(OC)c34)c(F)n2)cn1 [Compound P-4011, (1-Ethyl-1H-pyrazol-4-yl)-[6-fluoro-5-(4-methoxy-7H-pyrrolo[2,3-d]pyrimidin-5-ylmethyl)-pyridin-2-yl]-amine] | > 6.00 | > 8.00
